One molecule from patent US7335814B2, “Transgenic cells expressing glucosyltransferase nucleic acids” (The University of York, priority 2000, dated 2008) can be followed below.

Common to all, as to assay type: biochemical
The target in assay [1] is T1, recombinant GTase A320 (Arabidopsis thaliana, UniProt Q9LVF0).
T1 construct: made in house; host or cells: E. coli
T1 sequence (Q9LVF0 1-496): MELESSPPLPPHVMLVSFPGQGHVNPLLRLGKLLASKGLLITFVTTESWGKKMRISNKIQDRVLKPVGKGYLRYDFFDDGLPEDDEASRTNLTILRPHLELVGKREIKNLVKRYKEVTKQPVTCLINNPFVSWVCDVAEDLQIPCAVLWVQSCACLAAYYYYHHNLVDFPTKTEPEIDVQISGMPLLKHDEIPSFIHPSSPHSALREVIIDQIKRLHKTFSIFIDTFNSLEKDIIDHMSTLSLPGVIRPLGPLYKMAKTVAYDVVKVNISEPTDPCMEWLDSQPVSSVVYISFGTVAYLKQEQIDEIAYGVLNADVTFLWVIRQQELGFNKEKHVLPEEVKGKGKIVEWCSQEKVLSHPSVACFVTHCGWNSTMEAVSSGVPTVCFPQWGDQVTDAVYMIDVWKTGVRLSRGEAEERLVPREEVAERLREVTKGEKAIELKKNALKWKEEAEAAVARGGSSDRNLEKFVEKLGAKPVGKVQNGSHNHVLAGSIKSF
The experiment in a line: Specific activity of recombinant GTase producing glucose ester against lignin precursors (HPLC). To be noted: 5 mM UDPG, 0.2 μg GTase, 200 μl, 20° C., 30 min.

Assay [2] concerns the target T2, recombinant GTase A43 (Arabidopsis thaliana, UniProt O23402).
T2 construct: made in house; host or cells: E. coli
The description is as above. To be noted: 0.5 ml of potential substrates, 5 mM UDPG, 0.2 μg GTase, 200 μl, 20° C., 30 min.

For assay [3], the target named is T3, recombinant GTase A062 (Arabidopsis thaliana, UniProt Q9LR44).
T3 construct: made in house; host or cells: E. coli
T3 sequence (Q9LR44 1-469): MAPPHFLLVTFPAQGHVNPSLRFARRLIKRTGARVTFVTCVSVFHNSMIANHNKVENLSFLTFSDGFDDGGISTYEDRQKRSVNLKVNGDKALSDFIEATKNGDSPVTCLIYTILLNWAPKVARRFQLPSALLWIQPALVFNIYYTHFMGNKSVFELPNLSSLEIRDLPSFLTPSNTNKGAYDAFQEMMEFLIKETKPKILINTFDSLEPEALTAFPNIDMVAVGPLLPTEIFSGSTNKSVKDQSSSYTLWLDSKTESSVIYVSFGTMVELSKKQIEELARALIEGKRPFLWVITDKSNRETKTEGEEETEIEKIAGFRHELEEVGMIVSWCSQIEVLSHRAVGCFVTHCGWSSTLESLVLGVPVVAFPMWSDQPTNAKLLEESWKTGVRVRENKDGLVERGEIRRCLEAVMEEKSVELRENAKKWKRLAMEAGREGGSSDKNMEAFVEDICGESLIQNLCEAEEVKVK
Described as above. To be noted: 0.5 ml of potential substrates, 5 mM UDPG, 0.2 μg GTase, 200 μl, 20° C., 30 min.

Assay [4] deals with T4, recombinant GTase A233 (Arabidopsis thaliana, UniProt Q8W491).
T4 construct: made in house; host or cells: E. coli
The experiment in a line: Specific activity of recombinant GTase producing O-glucosides against lignin precursors (HPLC). To be noted: 30° C.; ND = not detected.

The target in assay [5] is T5, recombinant GTase A119 (Arabidopsis thaliana, UniProt Q9LVR1).
T5 construct: made in house; host or cells: E. coli
T5 sequence (Q9LVR1 1-481): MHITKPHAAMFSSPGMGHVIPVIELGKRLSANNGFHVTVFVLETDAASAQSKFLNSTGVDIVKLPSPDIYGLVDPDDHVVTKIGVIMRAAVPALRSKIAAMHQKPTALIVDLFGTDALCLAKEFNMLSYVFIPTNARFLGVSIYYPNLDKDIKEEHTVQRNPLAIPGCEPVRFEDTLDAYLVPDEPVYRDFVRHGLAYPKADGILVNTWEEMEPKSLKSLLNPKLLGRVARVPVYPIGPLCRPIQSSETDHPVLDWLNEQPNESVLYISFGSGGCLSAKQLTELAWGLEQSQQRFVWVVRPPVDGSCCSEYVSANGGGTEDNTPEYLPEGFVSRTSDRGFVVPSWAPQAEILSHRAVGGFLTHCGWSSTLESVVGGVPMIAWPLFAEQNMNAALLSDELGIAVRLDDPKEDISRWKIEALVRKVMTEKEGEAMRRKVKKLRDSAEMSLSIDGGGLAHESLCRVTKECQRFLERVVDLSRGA
The assay is described as above. To be noted: 30° C.; ND = not detected.

Assay [6] addresses T6, recombinant GTase A407 (Arabidopsis thaliana, UniProt O81498).
T6 construct: made in house; host or cells: E. coli
T6 sequence (O81498 1-481): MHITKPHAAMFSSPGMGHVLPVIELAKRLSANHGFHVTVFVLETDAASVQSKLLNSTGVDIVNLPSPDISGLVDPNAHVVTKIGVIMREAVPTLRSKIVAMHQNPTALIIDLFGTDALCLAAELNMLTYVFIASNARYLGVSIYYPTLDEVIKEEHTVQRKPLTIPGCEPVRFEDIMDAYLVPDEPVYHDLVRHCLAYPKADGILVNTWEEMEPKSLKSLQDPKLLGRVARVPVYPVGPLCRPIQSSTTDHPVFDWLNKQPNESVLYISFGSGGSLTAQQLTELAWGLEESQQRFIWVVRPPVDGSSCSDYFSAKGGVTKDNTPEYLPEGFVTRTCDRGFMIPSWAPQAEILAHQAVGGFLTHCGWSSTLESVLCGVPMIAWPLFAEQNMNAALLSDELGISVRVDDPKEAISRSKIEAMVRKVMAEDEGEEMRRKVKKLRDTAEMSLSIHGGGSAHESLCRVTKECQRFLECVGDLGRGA
The description is as above. To be noted: 30° C.; ND = not detected.

Assay [7] deals with T7, recombinant GTase A961 (Arabidopsis thaliana, UniProt O82381).
T7 construct: made in house; host or cells: E. coli
T7 sequence (O82381 1-481): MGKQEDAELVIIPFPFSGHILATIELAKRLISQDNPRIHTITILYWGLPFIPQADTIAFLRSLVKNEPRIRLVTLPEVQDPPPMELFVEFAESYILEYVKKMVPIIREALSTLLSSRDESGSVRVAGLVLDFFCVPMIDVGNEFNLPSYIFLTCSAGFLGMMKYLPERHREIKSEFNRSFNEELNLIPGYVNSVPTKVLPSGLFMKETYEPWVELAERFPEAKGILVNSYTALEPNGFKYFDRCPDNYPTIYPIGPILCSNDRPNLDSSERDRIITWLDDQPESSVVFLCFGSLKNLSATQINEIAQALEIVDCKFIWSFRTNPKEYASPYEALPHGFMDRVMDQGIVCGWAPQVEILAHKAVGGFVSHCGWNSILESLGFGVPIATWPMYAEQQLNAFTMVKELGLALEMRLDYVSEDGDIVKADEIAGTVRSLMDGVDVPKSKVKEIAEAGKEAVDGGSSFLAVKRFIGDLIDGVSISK
The description is as above. To be noted: 30° C.; ND = not detected.

Assay [8] addresses T8, UGT71C1 (Arabidopsis thaliana, UniProt O82381).
T8 construct: GST (N); made in house; host or cells: E. coli
T8 sequence (O82381 1-481): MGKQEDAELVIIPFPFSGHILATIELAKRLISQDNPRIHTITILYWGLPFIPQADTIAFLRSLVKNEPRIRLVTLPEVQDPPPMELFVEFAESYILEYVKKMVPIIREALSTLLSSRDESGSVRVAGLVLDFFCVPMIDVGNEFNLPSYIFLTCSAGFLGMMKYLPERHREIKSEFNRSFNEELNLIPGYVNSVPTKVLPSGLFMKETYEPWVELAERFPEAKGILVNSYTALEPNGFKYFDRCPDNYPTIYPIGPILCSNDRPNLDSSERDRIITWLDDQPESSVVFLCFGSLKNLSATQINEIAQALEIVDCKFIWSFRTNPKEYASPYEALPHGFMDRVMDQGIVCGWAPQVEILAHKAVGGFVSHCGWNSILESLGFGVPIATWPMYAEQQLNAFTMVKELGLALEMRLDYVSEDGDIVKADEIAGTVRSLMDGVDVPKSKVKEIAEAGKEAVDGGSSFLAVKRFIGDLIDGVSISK
The assay can be described thus: UGT71C1 glucosyltransferase specific activity towards phenolic compounds (reverse-phase HPLC). To be noted: 1 mM phenolic compound, 5 mM UDP-glucose, 50 mM TRIS-HCl pH 7.0, 30° C., 30 min; mean of three replicates ± standard deviation.

Assay [9] concerns the target T9, recombinant GTase A911 (Arabidopsis thaliana, UniProt O22182).
T9 sequence (O22182 1-456): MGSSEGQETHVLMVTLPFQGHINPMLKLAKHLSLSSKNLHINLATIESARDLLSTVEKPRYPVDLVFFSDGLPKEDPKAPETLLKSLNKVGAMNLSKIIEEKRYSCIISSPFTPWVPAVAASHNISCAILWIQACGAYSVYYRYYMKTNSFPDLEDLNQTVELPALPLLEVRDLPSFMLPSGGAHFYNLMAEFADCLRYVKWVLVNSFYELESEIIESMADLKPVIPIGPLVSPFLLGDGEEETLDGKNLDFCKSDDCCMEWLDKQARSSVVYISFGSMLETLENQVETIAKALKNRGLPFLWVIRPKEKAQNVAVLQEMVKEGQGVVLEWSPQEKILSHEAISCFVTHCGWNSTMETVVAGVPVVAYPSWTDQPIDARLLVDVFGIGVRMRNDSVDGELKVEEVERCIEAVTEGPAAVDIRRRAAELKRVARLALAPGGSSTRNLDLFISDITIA
The assay can be described thus: Specific activity of recombinant GTase producing glucose ester against lignin precursors (HPLC). Further details: made in house; host or cells: E. coli. To be noted: 0.5 ml of potential substrates, 5 mM UDPG, 0.2 μg GTase, 200 μl, 20° C., 30 min.

With `O=C(O)C=Cc1ccc(O)c(O)c1` [Caffeic acid, 3,4-dihydroxycinnamic acid], in [1], the “Specific activity of A320 (substrate converted to glucose ester)” value is listed as 0.05 nkat/mg. Further, in assay [2], the “Specific activity of A43 (substrate converted to glucose ester)” value came out at 0.01 nkat/mg. In addition, in assay [3], the “Specific activity of A062 (substrate converted to glucose ester)” value is listed as 0.26 nkat/mg. In addition, the “Specific activity of A233 (substrate converted to 4-O-glucoside)” value in assay [4] was 0.48 nkat/mg. Besides, the “Specific activity of A119 (substrate converted to 4-O-glucoside)” value in assay [5] was determined as 0.13 nkat/mg. The “Specific activity of A407 (substrate converted to 4-O-glucoside)” value in assay [6] is 0.07 nkat/mg. Also, the “Specific activity of A961 (substrate converted to 4-O-glucoside)” value in assay [7] was found to be 0.07 nkat/mg. The “Specific activity (UGT71C1)” value in [8] amounted to 2.9 ± 0.8 nkat/mg. Moreover, the “Specific activity of A911 (substrate converted to glucose ester)” value in assay [9] was determined as 0.77 nkat/mg.
